Results as given in ChEMBL document CHEMBL1201862, “PubChem BioAssay data set” (2004).
Active and inactive are the calls of the source.

What was measured:
[1] = target: Heat shock cognate 71 kDa protein (Homo sapiens, UniProt P11142); assay: In Vitro Hsc70 Dose Response Fluorescence Polarization Assay. [Related pubchem assays: 1072 ]
[2] = target: T1, Dual specificity protein phosphatase 6 (Rattus norvegicus, UniProt Q64346); type: functional
T1 sequence (Q64346 whole entry): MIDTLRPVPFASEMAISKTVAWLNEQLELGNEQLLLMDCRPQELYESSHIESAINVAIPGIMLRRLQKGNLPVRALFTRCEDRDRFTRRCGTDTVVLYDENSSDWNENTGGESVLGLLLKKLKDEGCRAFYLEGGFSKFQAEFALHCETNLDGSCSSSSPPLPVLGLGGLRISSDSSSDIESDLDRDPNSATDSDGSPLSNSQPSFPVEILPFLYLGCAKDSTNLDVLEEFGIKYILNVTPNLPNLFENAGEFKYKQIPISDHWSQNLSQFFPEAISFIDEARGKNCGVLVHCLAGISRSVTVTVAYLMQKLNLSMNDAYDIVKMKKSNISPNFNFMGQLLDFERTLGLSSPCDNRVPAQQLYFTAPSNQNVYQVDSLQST

[3] = target: Heat shock 70 kDa protein 1A (Homo sapiens, UniProt P0DMV8); assay: Hsp70 inhibitors, SAR follow-up, biochemical, fluorescence polarization (AID 1072)
[4] = target: Glyceraldehyde-3-phosphate dehydrogenase (Homo sapiens, UniProt P04406)
[5] = target: T2, RNA-binding protein pos-1 (Caenorhabditis elegans, UniProt G5EF15); assay: inhibitors of POS-1/mex-3 RNA binding, dose response, biochemical, fluorescence polarization (AID 1964);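 note: purified POS-1 fused to maltose binding protein made in E. coli; potency of compounds blocking POS-1 binding to fluorescent RNA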
T2 sequence (G5EF15 whole entry): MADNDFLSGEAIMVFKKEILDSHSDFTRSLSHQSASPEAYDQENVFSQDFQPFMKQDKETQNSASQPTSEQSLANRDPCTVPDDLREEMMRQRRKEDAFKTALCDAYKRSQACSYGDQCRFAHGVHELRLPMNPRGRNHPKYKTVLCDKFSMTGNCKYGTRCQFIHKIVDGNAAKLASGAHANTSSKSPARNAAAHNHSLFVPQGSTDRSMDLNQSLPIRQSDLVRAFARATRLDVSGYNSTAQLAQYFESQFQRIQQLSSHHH

[6] = target: T3, Tyrosine-protein phosphatase non-receptor type 7 (Homo sapiens, UniProt P35236); type: functional
T3 sequence (P35236 whole entry): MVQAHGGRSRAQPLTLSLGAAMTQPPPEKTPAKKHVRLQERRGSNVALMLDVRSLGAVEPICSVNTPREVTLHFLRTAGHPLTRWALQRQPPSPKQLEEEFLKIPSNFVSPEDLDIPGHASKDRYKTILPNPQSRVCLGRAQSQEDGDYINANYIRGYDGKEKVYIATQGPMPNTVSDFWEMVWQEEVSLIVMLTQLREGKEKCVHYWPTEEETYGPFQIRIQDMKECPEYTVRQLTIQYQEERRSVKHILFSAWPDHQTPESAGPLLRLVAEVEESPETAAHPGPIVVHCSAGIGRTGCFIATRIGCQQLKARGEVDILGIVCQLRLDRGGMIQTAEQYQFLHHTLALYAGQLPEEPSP

[7] = target: T4, Zinc finger protein mex-5 (Caenorhabditis elegans, UniProt Q9XUB2); assay: MEX-5/TCR-2 RNA interaction inhibitors, dose response, biochemical, C. elegans, fluorescence polarization (AID 1960)
T4 sequence (Q9XUB2 whole entry): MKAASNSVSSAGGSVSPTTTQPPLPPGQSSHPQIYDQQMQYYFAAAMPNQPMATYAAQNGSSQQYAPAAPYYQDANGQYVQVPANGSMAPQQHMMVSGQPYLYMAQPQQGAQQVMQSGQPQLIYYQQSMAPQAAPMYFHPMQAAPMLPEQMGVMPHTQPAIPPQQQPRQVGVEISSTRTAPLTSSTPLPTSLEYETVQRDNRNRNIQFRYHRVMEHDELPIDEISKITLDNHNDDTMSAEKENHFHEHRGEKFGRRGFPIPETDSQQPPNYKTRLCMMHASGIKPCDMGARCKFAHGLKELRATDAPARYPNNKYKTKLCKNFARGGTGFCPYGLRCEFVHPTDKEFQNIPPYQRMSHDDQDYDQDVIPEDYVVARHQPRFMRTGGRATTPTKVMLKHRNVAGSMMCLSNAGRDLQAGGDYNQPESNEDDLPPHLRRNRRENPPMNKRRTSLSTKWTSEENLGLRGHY

[8] = target: T1, Dual specificity protein phosphatase 6
[9] = test system: Escherichia coli; assay: microbe, parasite or virus in culture
[10] = test system: A-375; assay: MITF: Counter assay: A375 proliferation Measured in Cell-Based System Using Plate Reader - 2084-03_Inhibitor_Dose_DryPowder_Activity. [Related pubchem assays (depositor defined):AID488944]; type: functional; settings: Homo sapiens
[11] = inhibitors of SNCA 5'UTR-driven reporter translation, confirmation, H4 neuroglioma cells, luminescence (AID 1988); type: functional, cell-based
[12] = target: T5, Microphthalmia-associated transcription factor (Homo sapiens, UniProt O75030); assay: TRPM1 promoter luciferase signal decrease, dose response, MITF inhibitor project, cell-based, SK-MEL-5, cherry-picked, set 3 (AID 493073); type: functional
T5 sequence (O75030 whole entry): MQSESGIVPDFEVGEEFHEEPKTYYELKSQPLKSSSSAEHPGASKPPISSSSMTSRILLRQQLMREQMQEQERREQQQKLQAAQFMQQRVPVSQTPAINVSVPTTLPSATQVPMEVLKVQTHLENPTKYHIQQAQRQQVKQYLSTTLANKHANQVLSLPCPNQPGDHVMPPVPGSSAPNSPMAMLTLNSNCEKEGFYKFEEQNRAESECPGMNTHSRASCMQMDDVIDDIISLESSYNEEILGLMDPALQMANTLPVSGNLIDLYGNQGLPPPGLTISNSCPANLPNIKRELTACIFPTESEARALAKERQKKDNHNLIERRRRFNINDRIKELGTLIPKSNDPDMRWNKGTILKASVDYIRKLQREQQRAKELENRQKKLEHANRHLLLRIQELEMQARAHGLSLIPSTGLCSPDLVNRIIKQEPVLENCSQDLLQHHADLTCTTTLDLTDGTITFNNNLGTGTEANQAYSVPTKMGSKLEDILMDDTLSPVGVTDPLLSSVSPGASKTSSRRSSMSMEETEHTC

[13] = Luminescence Cell-Based Dose Retest to Confirm Inhibitors of Cancer Stem Cells. [Related pubchem assays (depositor defined):AID2717, AID2721]; type: functional; settings: Homo sapiens
[14] = Luminescence Cell-Based Dose Response HTS to Identify Inhibitors of 5'UTR Stem-Loop Driven Prion Protein mRNA Translation in H4 Neuroglioblastoma Cells. [Related pubchem assays: 1827 (Project Summary), 1813 (Primary HTS)]; type: functional
[15] = inhibitors of firefly luciferase expression or activity, dose response, H4 neuroglioma cells, luminescence (AID 1990); type: functional, cell-based
[16] = SFLLRN-induced P-Selectin Platelet Surface Expression Measured in Cell-Based System Using Flow Cytometry - 2016-03_Inhibitor_Dose_DryPowder_Activity_Set3. [Related pubchem assays (depositor defined):AID1678]; type: functional
[17] = Luminescence Cell-Based Dose Response Follow up to Identify Inhibitors of Platelet Dense Granule Release. [Related pubchem assays (depositor defined):AID1663, AID1678, AID1889, AID2519]; type: functional
[18] = target: Luciferin 4-monooxygenase (Photinus pyralis, UniProt P08659); assay: firefly luciferase enzyme inhibitors, dose response, biochemical, luminescence (AID 1891)
[19] = Luminescence Cell-Based Dose Confirmation HTS to Identify Inhibitors of Platelet Dense Granule Release. [Related pubchem assays: 1663 (Primary HTS), 1678 (Summary of Project)]; type: functional
[20] = blockers of SFLLRN-triggered platelet ATP secretion – cell-based, human platelets, luminescence, dry powder, dose response (AID 493100); type: functional
[21] = inhibitors of SFLLRN-triggered platelet P-selectin exposure, dose response, cell-based, fluorescence, flow cytometry, human platelets (AID 2511); type: functional

Luciferin 4-monooxygenase, sequence (P08659 whole entry): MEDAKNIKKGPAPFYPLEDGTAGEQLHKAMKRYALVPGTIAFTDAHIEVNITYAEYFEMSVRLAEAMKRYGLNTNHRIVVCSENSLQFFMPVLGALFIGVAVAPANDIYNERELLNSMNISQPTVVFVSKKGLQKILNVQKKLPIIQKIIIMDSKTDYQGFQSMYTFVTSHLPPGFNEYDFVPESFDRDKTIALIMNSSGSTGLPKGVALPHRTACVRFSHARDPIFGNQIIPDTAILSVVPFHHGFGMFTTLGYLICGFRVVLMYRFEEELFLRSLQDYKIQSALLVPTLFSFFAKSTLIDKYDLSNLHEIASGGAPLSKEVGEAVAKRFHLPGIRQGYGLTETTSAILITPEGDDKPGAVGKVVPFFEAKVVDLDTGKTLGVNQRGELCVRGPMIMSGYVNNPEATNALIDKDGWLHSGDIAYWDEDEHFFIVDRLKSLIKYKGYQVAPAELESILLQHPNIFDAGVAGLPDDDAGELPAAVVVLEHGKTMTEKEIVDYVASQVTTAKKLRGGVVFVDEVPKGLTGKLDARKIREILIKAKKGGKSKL
Glyceraldehyde-3-phosphate dehydrogenase, sequence (P04406 whole entry, the tested form may be a part): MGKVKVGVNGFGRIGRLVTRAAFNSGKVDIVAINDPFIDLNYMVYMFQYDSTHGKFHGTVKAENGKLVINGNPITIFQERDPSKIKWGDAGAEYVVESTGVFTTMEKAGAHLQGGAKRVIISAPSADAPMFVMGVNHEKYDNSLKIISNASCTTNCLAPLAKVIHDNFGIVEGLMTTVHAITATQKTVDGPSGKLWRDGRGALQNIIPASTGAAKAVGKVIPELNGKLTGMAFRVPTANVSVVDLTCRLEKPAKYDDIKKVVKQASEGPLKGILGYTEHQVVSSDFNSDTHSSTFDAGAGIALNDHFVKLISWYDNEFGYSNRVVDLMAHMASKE
Heat shock 70 kDa protein 1A, sequence (P0DMV8 whole entry): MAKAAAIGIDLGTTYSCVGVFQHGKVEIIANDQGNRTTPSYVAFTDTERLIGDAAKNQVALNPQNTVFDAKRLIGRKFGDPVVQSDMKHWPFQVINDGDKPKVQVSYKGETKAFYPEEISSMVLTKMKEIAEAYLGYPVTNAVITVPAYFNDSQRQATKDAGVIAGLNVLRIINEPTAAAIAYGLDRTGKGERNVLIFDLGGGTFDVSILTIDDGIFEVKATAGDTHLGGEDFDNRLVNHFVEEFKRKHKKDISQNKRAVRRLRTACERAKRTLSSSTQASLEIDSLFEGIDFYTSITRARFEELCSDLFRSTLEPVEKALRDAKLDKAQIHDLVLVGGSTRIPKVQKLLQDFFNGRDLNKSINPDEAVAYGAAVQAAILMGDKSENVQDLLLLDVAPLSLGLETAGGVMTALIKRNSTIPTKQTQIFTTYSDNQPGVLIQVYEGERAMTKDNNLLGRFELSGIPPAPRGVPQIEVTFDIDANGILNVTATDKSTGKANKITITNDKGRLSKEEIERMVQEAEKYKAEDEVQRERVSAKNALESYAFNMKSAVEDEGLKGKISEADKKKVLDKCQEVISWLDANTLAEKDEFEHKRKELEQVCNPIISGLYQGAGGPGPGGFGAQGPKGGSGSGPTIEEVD
Heat shock cognate 71 kDa protein, sequence (P11142 whole entry): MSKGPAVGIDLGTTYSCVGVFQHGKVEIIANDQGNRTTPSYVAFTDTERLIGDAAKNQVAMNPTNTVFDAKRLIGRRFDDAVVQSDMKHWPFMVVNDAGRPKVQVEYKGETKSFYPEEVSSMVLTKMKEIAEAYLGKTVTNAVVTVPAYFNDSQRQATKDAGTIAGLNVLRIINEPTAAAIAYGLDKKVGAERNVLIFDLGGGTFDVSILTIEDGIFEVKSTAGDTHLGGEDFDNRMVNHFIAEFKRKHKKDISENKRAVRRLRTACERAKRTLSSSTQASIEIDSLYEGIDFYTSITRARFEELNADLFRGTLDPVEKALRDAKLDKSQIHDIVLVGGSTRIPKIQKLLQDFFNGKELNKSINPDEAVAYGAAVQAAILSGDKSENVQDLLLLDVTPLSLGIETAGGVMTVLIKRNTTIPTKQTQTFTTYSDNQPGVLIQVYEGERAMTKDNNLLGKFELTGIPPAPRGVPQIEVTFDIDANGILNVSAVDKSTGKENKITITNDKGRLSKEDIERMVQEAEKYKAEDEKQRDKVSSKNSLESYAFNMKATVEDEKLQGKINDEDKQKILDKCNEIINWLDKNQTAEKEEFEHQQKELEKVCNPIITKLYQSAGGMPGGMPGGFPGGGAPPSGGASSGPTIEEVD

O=C(O)C1Nc2c(cccc2C(F)(F)F)C2C=CCC12 (stereo unspecified)
IC50 [1]: 20.2 µM (active)
IC50 [2]: 7.72 µM (active)
IC50 [3]: 8.36 µM (active)
IC50 [4]: > 100 µM (not active)
EC50 [5]: 26.7 µM (active)
IC50 [6]: 5.06 µM (active)
EC50 [7]: 17.7 µM (active)
IC50 [8]: 9.2 µM (active)

CCCCOC(=O)C1=C(C)NC(=O)NC1c1ccc2c(c1)OCO2 (stereo unspecified)
AC50 [9]: 23.6 µM (active)

CC(=O)Nc1sc(C)c(C)c1C(=O)OCC(=O)N(CC(C)C)c1c(N)n(Cc2ccccc2)c(=O)[nH]c1=O
AC50 [10]: 7.68 µM (active)
EC50 [11]: 3.96 µM (active)
AC50 [12]: 5.29 µM (active)
AC50 [13]: 1.64 µM (active)
EC50 [14]: 9.81 µM (active)
EC50 [15]: 10.2 µM (active)

CCCC(=O)Nc1cccc(NC(=O)c2ccccc2Br)c1
AC50 [16]: < 0.156 µM (active)
EC50 [17]: 4.87 µM (active)
EC50 [18]: > 112 µM (not active)
EC50 [19]: 1.87 µM (active)
AC50 [20]: 11.2 µM (active)
EC50 [21]: < 0.3 µM (active)
